Reference: patent US4393228A, “Epoxysuccinic acid derivatives” (Taisho Pharmaceutical Co., Ltd., priority 1977, dated 1983)
Structures can show the parent of a compound that is named as a salt.

Molecular target: T1, papain (Carica papaya, UniProt P00784)
T1 construct: purchased Sigma Chem. Co
T1 sequence (P00784 134-345): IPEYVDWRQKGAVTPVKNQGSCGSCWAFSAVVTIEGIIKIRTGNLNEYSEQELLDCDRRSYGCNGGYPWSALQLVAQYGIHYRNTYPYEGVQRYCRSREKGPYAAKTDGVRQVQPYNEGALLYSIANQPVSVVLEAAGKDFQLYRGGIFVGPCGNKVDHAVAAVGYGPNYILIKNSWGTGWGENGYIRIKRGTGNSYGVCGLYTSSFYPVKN
Assay: Papain inhibitory activity (milk casein digestion)
Type: biochemical
Conditions: papain 80 μg/ml 0.5 ml, cysteine, pH 6.8, 1% milk casein, 40° C., 10 minutes
Method in brief: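 Papain (80 μg/ml stock) preincubated 15 min at 40 °C with inhibitor, cysteine/EDTA activator and phosphate buffer pH 6.8. Then 1% milk casein digested 10 min at 40 °C, stopped with trichloroacetic acid and filtered; filtrate absorbance at 280 nm gives percent inhibition versus no-inhibitor control.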

SMILES	ID50 (amount of inhibitor for 50% inhibition)
CC(OC(=O)C1OC1C(=O)OC(C)C1CCCC1)C1CCCC1 (stereo not drawn) [EP-45, di-1-cyclopentaneethyl epoxysuccinate]	0.23 γ
CC(OC(=O)C1OC1C(=O)O)C1CCCC1 (stereo not drawn) [EP-46, 1-cyclopentaneethyl potassium epoxysuccinate]	0.08 γ
CC1(C)C2CCC1(C)C(OC(=O)C1OC1C(=O)OC1CC3CCC1(C)C3(C)C)C2 (stereo not drawn) [EP-53, dibornyl epoxysuccinate]	0.45 γ
CC1(C)C2CCC1(C)C(OC(=O)C1OC1C(=O)O)C2 (stereo not drawn) [EP-54, bornyl potassium epoxysuccinate]	0.09 γ
O=C(OC1CC2CCC1C2)C1OC1C(=O)OC1CC2CCC1C2 (stereo not drawn) [EP-55, dinorbornyl epoxysuccinate]	0.28 γ
O=C(O)C1OC1C(=O)OC1CC2CCC1C2 (stereo not drawn) [EP-56, norbornyl potassium epoxysuccinate]	0.06 γ
O=C(OC1CC2C=CC1C2)C1OC1C(=O)OC1CC2C=CC1C2 (stereo not drawn) [EP-57, dinorbor-5-en-2-yl epoxysuccinate]	0.26 γ
O=C(O)C1OC1C(=O)OC1CC2C=CC1C2 (stereo not drawn) [EP-58, norbor-5-en-2-yl potassium epoxysuccinate]	0.07 γ
O=C(OCC1CC=CCC1)C1OC1C(=O)OCC1CC=CCC1 (stereo not drawn) [EP-69, di-3-cyclohexenemethyl epoxysuccinate]	0.23 γ
O=C(O)C1OC1C(=O)OCC1CC=CCC1 (stereo not drawn) [EP-70, 3-cyclohexenemethylpotassium epoxysuccinate]	0.08 γ
O=C(OCC1C=CCC1)C1OC1C(=O)OCC1C=CCC1 (stereo not drawn) [EP-71, di-2-cyclopentenemethyl epoxysuccinate]	0.40 γ
O=C(O)C1OC1C(=O)OCC1C=CCC1 (stereo not drawn) [EP-72, 2-cyclopentenemethyl potassium epoxysuccinate]	0.08 γ
CCOC(=O)C1OC1C(=O)N[C@@H](CC(C)C)C(=O)OCC (stereo partly drawn) [EP-146, N-(3-ethoxycarbonyloxirane-2-carbonyl)-L-leucine ethyl ester]	0.39 γ
C=CCOC(=O)C1OC1C(=O)N[C@@H](Cc1ccc(O)cc1)C(=O)OCc1ccccc1 (stereo partly drawn) [EP-147, N-(3-allyloxycarbonyloxirane-2-carbonyl)-L-tyrosine benzyl ester]	3.40 γ
Cc1cccc(COC(=O)C2OC2C(=O)N[C@@H](Cc2ccc(O)cc2)C(=O)OCc2ccccc2)c1 (stereo partly drawn) [EP-148, N-(3-m-methylbenzyloxycarbonyloxirane-2-carbonyl)-L-tyrosine benzyl ester]	0.70 γ
COC(=O)[C@H](CCSC)NC(=O)C1OC1C(=O)OCc1ccc2c(c1)OCO2 (stereo partly drawn) [EP-149, N-(3-piperonyloxycarbonyloxirane-2-carbonyl)-L-methionene methyl ester]	0.70 γ
CCOC(=O)C1OC1C(=O)N[C@@H](Cc1ccccc1)C(=O)OCC (stereo partly drawn) [EP-150, N-(3-ethoxycarbonyloxirane-2-carbonyl)-L-phenylalanine ethyl ester]	3.10 γ
CCOC(=O)C1OC1C(=O)N[C@@H](Cc1c[nH]c2ccccc12)C(=O)OCC (stereo partly drawn) [EP-151, N-(3-ethoxycarbonyloxirane-2-carbonyl)-L-tryptophan ethyl ester]	7.20 γ
CCOC(=O)C1OC1C(=O)N1CCC[C@H]1C(=O)OCc1ccccc1 (stereo partly drawn) [EP-152, N-(3-ethoxycarbonyloxirane-2-carbonyl)-L-proline benzyl ester]	48.20 γ
CCOC(=O)C1OC1C(=O)N[C@@H](CCSC)C(=O)OC (stereo partly drawn) [EP-155, N-(3-ethoxycarbonyloxirane-2-carbonyl)-L-methionine methyl ester]	9.20 γ
CCOC(=O)C1OC1C(=O)N[C@@H](CCC(=O)OCc1ccccc1)C(=O)OCc1ccccc1 (stereo partly drawn) [EP-156, N-(3-ethoxycarbonyloxirane-2-carbonyl)-L-glutamic acid dibenzyl ester]	13.80 γ

SMILES	ID50 (amount of inhibitor for 50% inhibition)
CCOC(=O)C1OC1C(=O)N[C@H](C(=O)OCc1ccccc1)C(C)C (stereo partly drawn) [EP-158, N-(3-ethoxycarbonyloxirane-2-carbonyl)-L-valine benzyl ester]	3.47 γ
CCOC(=O)[C@H](Cc1ccccc1)NC(=O)C1OC1C(=O)OCc1ccccc1 (stereo partly drawn) [EP-159, N-(3-benzyloxycarbonyloxirane-2-carbonyl)-L-phenylalanine ethyl ester]	0.27 γ
CCOC(=O)[C@H](Cc1ccccc1)NC(=O)C1OC1C(=O)OCc1ccccc1Cl (stereo partly drawn) [EP-160, N-(3-o-chlorobenzyloxycarbonyloxirane-2-carbonyl)-L-phenylalanine ethyl ester]	0.30 γ
CC(C)[C@H](NC(=O)C1OC1C(=O)OCc1ccc(Br)cc1)C(=O)OCc1ccccc1 (stereo partly drawn) [EP-162, N-(3-p-bromobenzyloxycarbonyloxirane-2-carbonyl)-L-valine benzyl ester]	0.80 γ
CCOC(=O)C1OC1C(=O)N[C@@H](CCCCNC(=O)OCc1ccccc1)C(=O)OCc1ccccc1 (stereo partly drawn) [EP-163, N^α -(3-ethoxycarbonyloxirane-2-carbonyl)-N^ε -carbobenzoxy-L-lysine benzyl ester]	29.07 γ
C=CCOC(=O)C1OC1C(=O)N[C@@H](CCCCNC(=O)OCc1ccccc1)C(=O)OCc1ccccc1 (stereo partly drawn) [EP-164, N^α -(3-allyloxycarbonyloxirane-2-carbonyl)-N^ε -carbobenzoxy-L-lysine benzyl ester]	20.49 γ
C#CCOC(=O)C1OC1C(=O)N[C@@H](CCCCNC(=O)OCc1ccccc1)C(=O)OCc1ccccc1 (stereo partly drawn) [EP-165, N^α -(3-propargyloxycarbonyloxirane-2-carbonyl)-N^ε -carbobenzoxy-L-lysine benzyl ester]	22.50 γ
CCOC(=O)[C@H](CC(C)C)NC(=O)C1OC1C(=O)OC (stereo partly drawn) [EP-166, N-(3-methoxycarbonyloxirane-2-carbonyl)-L-leucine ethyl ester]	0.67 γ
CCOC(=O)C1OC1C(=O)N[C@@H](CC(C)C)C(N)=O (stereo partly drawn) [EP-167, N-(3-ethoxycarbonyloxirane-2-carbonyl)-L-leucine amide]	0.50 γ
CCOC(=O)C1OC1C(=O)N[C@@H](CCC(N)=O)C(=O)OCc1ccccc1 (stereo partly drawn) [EP-168, N-(3-ethoxycarbonyloxirane-2-carbonyl)-L-glutamine benzyl ester]	12.50 γ
CCOC(=O)C1OC1C(=O)N[C@@H](CCCCNC(=O)OCc1ccc(OC)cc1)C(=O)OCc1ccccc1 (stereo partly drawn) [EP-169, N^α -(3-ethoxycarbonyloxirane-2-carbonyl)-N^ε -p-methoxybenzyloxycarbonyl-L-lysine benzyl ester]	26.50 γ
CCOC(=O)C1OC1C(=O)N[C@@H](CCCCNC(=O)OC(C)(C)C)C(=O)OCc1ccccc1 (stereo partly drawn) [EP-170, N^α -(3-ethoxycarbonyloxirane-2-carbonyl)-N^ε -t-butyloxycarbonyl-L-lysine benzyl ester]	27.50 γ
O=CNCCCC[C@H](NC(=O)C1OC1C(=O)OCc1ccccc1)C(=O)OCc1ccccc1 (stereo partly drawn) [EP-171]	5.80 γ
CCOC(=O)C1OC1C(=O)N[C@@H](CCCNC(C)=O)C(=O)OCc1ccccc1 (stereo partly drawn) [EP-172, N^α -(3-ethoxycarbonyloxirane-2-carbonyl)-N^δ -acetyl-L-ornithine benzyl ester]	6.20 γ
CCOC(=O)C1OC1C(=O)N[C@@H](CCCNC(=O)c1ccccc1)C(=O)OCc1ccccc1 (stereo partly drawn) [EP-173, N^α -(3-ethoxycarbonyloxirane-2-carbonyl)-N^δ -benzoyl-L-ornithine benzyl ester]	5.80 γ
O=C(NCCCC[C@H](NC(=O)C1OC1C(=O)O)C(=O)O)OCc1ccccc1 (stereo partly drawn) [EP-176, N-(3-carboxyoxirane-2-carbonyl)-N-carbobenzoxy-L-lysine dipotassium salt]	1.06 γ
O=C(O)C1OC1C(=O)N[C@@H](Cc1c[nH]c2ccccc12)C(=O)O (stereo partly drawn) [EP-177, N-(3-carboxyoxirane-2-carbonyl)-L-tryptophan]	1.50 γ
N=C(NCCC[C@H](NC(=O)C1OC1C(=O)OCc1ccccc1)C(=O)OCc1ccccc1)N[N+](=O)[O-] (stereo partly drawn) [EP-178, N-(3-benzyloxycarbonyloxirane-2-carbonyl)-N^G -nitro-L-arginine benzyl ester]	4.63 γ
CC(C)OC(=O)C1OC1C(=O)N[C@@H](CCCCNC(=O)OCc1ccccc1)C(=O)OCc1ccccc1 (stereo partly drawn) [EP-180, N^α -(3-iso-propyloxycarbonyloxirane-2-carbonyl)-N^ε -carbobenzoxy-L-lysine benzyl ester]	9.76 γ
Cc1ccc(COC(=O)C2OC2C(=O)N[C@@H](CCCCNC(=O)OCc2ccccc2)C(=O)OCc2ccccc2)cc1 (stereo partly drawn) [EP-181, N^α -(3-p-methylbenzyloxycarbonyloxirane-2-carbonyl)-N^ε -carbobenzoxy-L-lysine benzyl ester]	6.59 γ
O=C(NCCC[C@H](NC(=O)C1OC1C(=O)OCc1ccccc1)C(=O)OCc1ccccc1)OCc1ccccc1 (stereo partly drawn) [EP-182, N^α -(3-benzyloxycarbonyloxirane-2-carbonyl)-N^δ -carbobenzoxy-L-ornithine benzyl ester]	5.95 γ
